Test results taken from patent US20230139171A1 (SITA Information Networking Computing UK Limited, priority 2019, published 2023).
pIC50: −log10 of the molar value.

Columns and labels:
Type in all cases: cell-based
[1] = target: T1, human TLR7 (Homo sapiens, UniProt Q9NYK1); experiment: TLR7 inhibition reporter assay (HEK-Blue cells, SEAP reporter, gardiquimod stimulation); settings: HEK-Blue cells overexpressing human TLR7, SEAP reporter, gardiquimod 7.5 μM; read-out: TLR7 IC50
T1 construct: host or cells: HEK-Blue cells
T1 sequence (Q9NYK1 27-1049): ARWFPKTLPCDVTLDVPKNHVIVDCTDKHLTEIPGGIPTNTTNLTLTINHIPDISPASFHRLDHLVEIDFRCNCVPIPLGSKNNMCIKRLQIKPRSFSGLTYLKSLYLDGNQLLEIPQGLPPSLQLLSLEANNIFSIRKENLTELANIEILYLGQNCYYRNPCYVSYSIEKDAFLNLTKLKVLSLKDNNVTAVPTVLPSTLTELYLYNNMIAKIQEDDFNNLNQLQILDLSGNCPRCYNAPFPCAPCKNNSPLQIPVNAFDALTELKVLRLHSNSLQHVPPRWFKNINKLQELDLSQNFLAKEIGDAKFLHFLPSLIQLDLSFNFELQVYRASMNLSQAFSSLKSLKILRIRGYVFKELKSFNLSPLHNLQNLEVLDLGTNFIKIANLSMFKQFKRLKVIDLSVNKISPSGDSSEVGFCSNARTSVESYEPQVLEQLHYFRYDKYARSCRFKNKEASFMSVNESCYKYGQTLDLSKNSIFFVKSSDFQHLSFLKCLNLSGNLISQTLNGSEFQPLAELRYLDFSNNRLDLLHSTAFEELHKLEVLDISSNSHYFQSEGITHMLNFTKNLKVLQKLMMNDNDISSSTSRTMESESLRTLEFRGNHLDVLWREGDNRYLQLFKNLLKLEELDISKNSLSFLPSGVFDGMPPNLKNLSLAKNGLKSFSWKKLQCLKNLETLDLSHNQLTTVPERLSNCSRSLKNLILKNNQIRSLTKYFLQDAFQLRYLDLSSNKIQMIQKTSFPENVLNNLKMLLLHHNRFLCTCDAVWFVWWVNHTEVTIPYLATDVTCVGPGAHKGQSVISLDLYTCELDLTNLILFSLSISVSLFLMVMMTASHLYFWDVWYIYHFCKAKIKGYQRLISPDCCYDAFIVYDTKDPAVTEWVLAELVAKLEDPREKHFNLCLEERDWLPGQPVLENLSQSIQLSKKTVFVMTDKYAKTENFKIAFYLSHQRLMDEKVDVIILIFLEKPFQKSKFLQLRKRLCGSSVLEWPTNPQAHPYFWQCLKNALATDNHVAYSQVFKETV
Method in brief: (§1)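 Screening used HEK-Blue cells overexpressing one human TLR (7, 8 or 9) and an IFN-β minimal promoter–NF-κB/AP-1 SEAP construct. Stimulation lasted 22 h at 37 °C with receptor-specific agonist: gardiquimod, R848 or ODN2006 at 7.5 μM, 15.9 μM and 5 nM.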

[2] = target: T2, human TLR8 (Homo sapiens, UniProt Q9NR97); experiment: TLR8 inhibition reporter assay (HEK-Blue cells, SEAP reporter, R848 stimulation); settings: HEK-Blue cells overexpressing human TLR8, SEAP reporter, R848 15.9 μM; read-out: TLR8 IC50
T2 construct: host or cells: HEK-Blue cells
T2 sequence (Q9NR97 27-1041): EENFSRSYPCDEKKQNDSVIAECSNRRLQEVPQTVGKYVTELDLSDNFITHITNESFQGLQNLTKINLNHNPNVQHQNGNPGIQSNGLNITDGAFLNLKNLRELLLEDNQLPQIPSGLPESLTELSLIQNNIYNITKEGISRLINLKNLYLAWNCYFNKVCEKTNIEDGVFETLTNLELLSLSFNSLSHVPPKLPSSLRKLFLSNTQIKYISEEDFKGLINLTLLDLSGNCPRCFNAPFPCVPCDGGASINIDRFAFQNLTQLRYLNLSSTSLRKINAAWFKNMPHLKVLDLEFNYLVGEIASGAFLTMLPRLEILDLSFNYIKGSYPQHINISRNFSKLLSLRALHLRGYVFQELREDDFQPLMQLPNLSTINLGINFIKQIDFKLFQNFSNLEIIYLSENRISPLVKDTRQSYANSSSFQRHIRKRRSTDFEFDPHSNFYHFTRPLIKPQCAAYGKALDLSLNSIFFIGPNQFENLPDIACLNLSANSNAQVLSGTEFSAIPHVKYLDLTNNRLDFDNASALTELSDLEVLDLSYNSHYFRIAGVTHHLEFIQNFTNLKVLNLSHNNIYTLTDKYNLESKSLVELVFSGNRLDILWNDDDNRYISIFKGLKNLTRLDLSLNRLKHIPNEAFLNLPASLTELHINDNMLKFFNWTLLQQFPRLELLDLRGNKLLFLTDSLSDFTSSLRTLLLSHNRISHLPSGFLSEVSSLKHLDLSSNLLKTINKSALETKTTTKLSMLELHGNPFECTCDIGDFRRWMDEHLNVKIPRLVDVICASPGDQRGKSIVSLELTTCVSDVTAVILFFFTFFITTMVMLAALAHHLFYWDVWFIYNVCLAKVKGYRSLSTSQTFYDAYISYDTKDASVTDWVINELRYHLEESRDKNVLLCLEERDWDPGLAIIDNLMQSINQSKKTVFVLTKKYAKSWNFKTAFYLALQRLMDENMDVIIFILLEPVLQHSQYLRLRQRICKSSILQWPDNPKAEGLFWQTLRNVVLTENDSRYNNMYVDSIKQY
Method in brief: as §1

[3] = target: T3, human TLR9 (Homo sapiens, UniProt Q9NR96); experiment: TLR9 inhibition reporter assay (HEK-Blue cells, SEAP reporter, ODN2006 stimulation); settings: HEK-Blue cells overexpressing human TLR9, SEAP reporter, ODN2006 5 nM
T3 construct: host or cells: HEK-Blue cells
T3 sequence (Q9NR96 26-1032): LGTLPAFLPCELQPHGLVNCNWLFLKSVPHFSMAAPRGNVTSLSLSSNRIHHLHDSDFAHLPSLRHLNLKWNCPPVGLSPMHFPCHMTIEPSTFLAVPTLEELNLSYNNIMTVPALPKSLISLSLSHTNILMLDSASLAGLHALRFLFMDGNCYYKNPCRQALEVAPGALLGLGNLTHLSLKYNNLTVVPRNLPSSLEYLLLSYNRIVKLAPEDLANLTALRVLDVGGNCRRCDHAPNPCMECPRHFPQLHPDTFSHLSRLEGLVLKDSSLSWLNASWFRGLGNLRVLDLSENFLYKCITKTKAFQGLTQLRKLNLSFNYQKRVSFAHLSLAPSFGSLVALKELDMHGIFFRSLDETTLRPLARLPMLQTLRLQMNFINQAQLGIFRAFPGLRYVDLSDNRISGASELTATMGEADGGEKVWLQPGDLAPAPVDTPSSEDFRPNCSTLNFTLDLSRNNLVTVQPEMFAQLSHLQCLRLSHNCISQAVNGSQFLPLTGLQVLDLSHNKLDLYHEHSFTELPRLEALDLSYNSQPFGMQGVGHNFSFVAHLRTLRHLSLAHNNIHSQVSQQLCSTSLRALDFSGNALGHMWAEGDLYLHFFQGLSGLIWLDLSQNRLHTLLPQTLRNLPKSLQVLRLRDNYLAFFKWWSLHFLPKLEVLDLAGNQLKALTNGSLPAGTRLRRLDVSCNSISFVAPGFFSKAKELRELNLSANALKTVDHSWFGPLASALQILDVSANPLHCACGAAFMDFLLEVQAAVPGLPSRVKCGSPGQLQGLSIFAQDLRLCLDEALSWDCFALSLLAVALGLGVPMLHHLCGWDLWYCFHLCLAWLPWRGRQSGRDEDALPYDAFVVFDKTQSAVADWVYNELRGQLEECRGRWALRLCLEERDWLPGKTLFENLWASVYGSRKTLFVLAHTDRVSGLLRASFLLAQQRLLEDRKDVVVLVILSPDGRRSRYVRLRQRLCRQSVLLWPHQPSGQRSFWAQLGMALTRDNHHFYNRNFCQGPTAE
Method in brief: as §1

Compound | pIC50 [1] | pIC50 [2] | pIC50 [3]
COc1cc(-c2[nH]c3sc(C4CCC(N5CCNC(=O)C5)CC4)nc3c2C(C)C)cn2ncnc12 (single isomer, unassigned) [Example 121, 4-(4-(6-isopropyl-5-(8-methoxy-[1,2,4]triazolo[1,5-a]pyridin-6-yl)-4H-pyrrolo[3,2-d]thiazol-2-yl)cyclohexyl) piperazin-2-one] | 8.07 | 7.24 | < 4.30
COc1cc(-c2[nH]c3sc(C4CCC(N(C)C5COC5)CC4)nc3c2C(C)C)cn2ncnc12 (single isomer, unassigned) [Example 125, N-(4-(6-isopropyl-5-(8-methoxy-[1,2,4]triazolo[1,5-a]pyridin-6-yl)-4H-pyrrolo[3,2-d]thiazol-2-yl)cyclohexyl)-N-methyloxetan-3-amine] | 8.24 | 7.59 | 5.27
Cc1cc(-c2[nH]c3sc(C4CCC(NC5COC5)CC4)nc3c2C(C)C)cn2ncnc12 (single isomer, unassigned) [Example 130, N-(4-(6-isopropyl-5-(8-methyl-[1,2,4]triazolo[1,5-a]pyridin-6-yl)-4H-pyrrolo[3,2-d]thiazol-2-yl)cyclohexyl)oxetan-3-amine] | 9.35 | 8.62 | 4.94
CCN(C)C1CCC(c2nc3c(C(C)C)c(-c4cc(C)c5ncnn5c4)[nH]c3s2)CC1 (single isomer, unassigned) [Example 132, N-ethyl-4-(6-isopropyl-5-(8-methyl-[1,2,4]triazolo[1,5-a]pyridin-6-yl)-4H-pyrrolo[3,2-d]thiazol-2-yl)-N-methylcyclohexan-1-amine] | 9.44 | 8.56 | 5.67
Cc1cc(-c2[nH]c3sc(C4CCC(NCC5(C)COC5)CC4)nc3c2C(C)C)cn2ncnc12 (single isomer, unassigned) [Example 134, 4-(6-isopropyl-5-(8-methyl-[1,2,4]triazolo[1,5-a]pyridin-6-yl)-4H-pyrrolo[3,2-d]thiazol-2-yl)-N-((3-methyloxetan-3-yl)methyl)cyclohexan-1-amine] | 8.91 | 8.89 | 4.79

Further lines, results first:

pIC50 [1] | pIC50 [2] | pIC50 [3] | Compound
8.48 | 7.27 | < 4.30 | COc1cc(-c2[nH]c3sc(C4CCC(N5CC(O)(C(F)(F)F)C5)CC4)nc3c2C(C)C)cn2ncnc12 (single isomer, unassigned) [Example 119, 1-(4-(6-isopropyl-5-(8-methoxy-[1,2,4]triazolo[1,5-a]pyridin-6-yl)-4H-pyrrolo[3,2-d]thiazol-2-yl)cyclohexyl)-3-(trifluoromethyl)azetidin-3-ol]
8.38 | 7.78 | < 4.30 | COc1cc(-c2[nH]c3sc(C4CCC(N5CCNC(=O)C5)CC4)nc3c2C(C)C)cn2ncnc12 (single isomer, unassigned) [Example 120, 4-(4-(6-isopropyl-5-(8-methoxy-[1,2,4]triazolo[1,5-a]pyridin-6-yl)-4H-pyrrolo[3,2-d]thiazol-2-yl)cyclohexyl) piperazin-2-one]
8.71 | 8.48 | 5.03 | COc1cc(-c2[nH]c3sc(C4CCC(N5CC(OC)C5)CC4)nc3c2C(C)C)cn2ncnc12 (single isomer, unassigned) [Example 122, 6-isopropyl-5-(8-methoxy-[1,2,4]triazolo[1,5-a]pyridin-6-yl)-2-(4-(3-methoxyazetidin-1-yl)cyclohexyl)-4H-pyrrolo[3,2-d]thiazole]
8.29 | 7.77 | 5.20 | COc1cc(-c2[nH]c3sc(C4CCC(N5CC(OC)C5)CC4)nc3c2C(C)C)cn2ncnc12 (single isomer, unassigned) [Example 123, 6-isopropyl-5-(8-methoxy-[1,2,4]triazolo[1,5-a]pyridin-6-yl)-2-(4-(3-methoxyazetidin-1-yl)cyclohexyl)-4H-pyrrolo[3,2-d]thiazole]
8.13 | 7.49 | 4.96 | Cc1cc(-c2[nH]c3sc(C4CCC(NC5COC5)CC4)nc3c2C(C)C)cn2ncnc12 (single isomer, unassigned) [Example 131, N-(4-(6-isopropyl-5-(8-methyl-[1,2,4]triazolo[1,5-a]pyridin-6-yl)-4H-pyrrolo[3,2-d]thiazol-2-yl)cyclohexyl)oxetan-3-amine]
8.17 | 7.41 | 4.65 | Cc1cc(-c2[nH]c3sc(C4CCC(NCC5(C)COC5)CC4)nc3c2C(C)C)cn2ncnc12 (single isomer, unassigned) [Example 135, 4-(6-isopropyl-5-(8-methyl-[1,2,4]triazolo[1,5-a]pyridin-6-yl)-4H-pyrrolo[3,2-d]thiazol-2-yl)-N-((3-methyloxetan-3-yl)methyl)cyclohexan-1-amine]
